Source: patent US9834542B2, “LXR modulators” (BRISTOL-MYERS SQUIBB COMPANY, priority 2013, dated 2017)

Target: T1, LXRβ (Homo sapiens, UniProt P55055)
T1 construct: Co-transfection expression plasmids, comprising full-length LXRα (pCMX-h LXRα[…] or LXRβ (pCMX-hLXRβ)); expressed in transfected cells; host or cells: CV-1 African Green Monkey Kidney Cells
T1 sequence (P55055 1-460): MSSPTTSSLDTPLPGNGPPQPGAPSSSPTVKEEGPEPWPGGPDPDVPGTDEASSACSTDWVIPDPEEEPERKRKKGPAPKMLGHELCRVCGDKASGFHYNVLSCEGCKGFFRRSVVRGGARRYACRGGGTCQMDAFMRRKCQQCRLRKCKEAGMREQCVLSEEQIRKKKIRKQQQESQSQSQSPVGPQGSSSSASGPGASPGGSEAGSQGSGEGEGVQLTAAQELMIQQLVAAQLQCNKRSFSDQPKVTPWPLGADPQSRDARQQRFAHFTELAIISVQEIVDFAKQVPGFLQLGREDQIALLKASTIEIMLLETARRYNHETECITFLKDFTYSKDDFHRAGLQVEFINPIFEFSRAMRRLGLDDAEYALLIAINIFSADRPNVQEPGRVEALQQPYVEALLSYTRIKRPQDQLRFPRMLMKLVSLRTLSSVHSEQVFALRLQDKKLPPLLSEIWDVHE
T1 sequence (P19793 1-462 partner): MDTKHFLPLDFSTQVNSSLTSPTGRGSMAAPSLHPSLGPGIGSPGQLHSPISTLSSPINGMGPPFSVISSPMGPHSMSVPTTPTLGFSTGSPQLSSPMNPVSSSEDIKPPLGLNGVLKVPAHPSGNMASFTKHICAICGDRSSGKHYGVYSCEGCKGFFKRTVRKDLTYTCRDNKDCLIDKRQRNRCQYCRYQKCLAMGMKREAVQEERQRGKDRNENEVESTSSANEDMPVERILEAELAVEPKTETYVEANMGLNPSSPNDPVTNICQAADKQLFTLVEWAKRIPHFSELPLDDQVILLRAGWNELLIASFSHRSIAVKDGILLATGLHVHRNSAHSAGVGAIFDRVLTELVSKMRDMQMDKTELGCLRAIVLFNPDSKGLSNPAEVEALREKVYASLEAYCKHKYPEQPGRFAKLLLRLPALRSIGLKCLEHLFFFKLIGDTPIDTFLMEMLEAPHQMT
Assay: Co-transfection assay (LXRE luciferase reporter), LXRβ
Format: cell-based
Details: for EC50: CV-1 cells transfected with pCMX-hLXRβ and LXREx1-Tk-Luciferase, 20 hours incubation; for Emax: LXRβ co-transfection, relative to high control 1-(2,4-difluorobenzyl)-2-oxo-6-(4-phenoxyphenyl)-4-(trifluoromethyl)-1,2-dihydropyridine-3-carbonitrile, read-out: % Efficacy
Outline: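 Luciferase signal from an LXREx1-Tk reporter was measured after transfected CV-1 cells (full-length hLXRβ, endogenous RXR) were treated with compounds for 20 h at 37 °C, ≤0.5% DMSO. EC50 came from four-parameter fits of 11-point ½-log curves; % efficacy versus a reference agonist maximum.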

SMILES | EC50 [nM] | Emax [%]
Cc1nc(-c2cc(-c3ccc(C)c(S(C)(=O)=O)c3)ccc2-n2cc(C(F)(F)F)nc2C)c(-c2ccc(OC(F)F)c(F)c2)o1 [Example 435, 5-(4-(difluoromethoxy)-3-fluorophenyl)-2-methyl-4-(4′-methyl-4-(2-methyl-4-(trifluoromethyl)-1H-imidazol-1-yl)-3′-(methylsulfonyl)biphenyl-3-yl)oxazole] | 69 | 87
CCc1nc(C(F)(F)F)cn1-c1ccc(-c2cccc(S(C)(=O)=O)c2)cc1-n1nncc1-c1ccc(OC(F)(F)F)cc1 [Example 227, 1-(4-(2-ethyl-4-(trifluoromethyl)-1H-imidazol-1-yl)-3′-(methylsulfonyl)-[1,1′-biphenyl]-3-yl)-5-(4-(trifluoromethoxy)phenyl)-1H-1,2,3-triazole] | 865 | 118
Cc1nc(-c2cc(-c3cc(F)c(CO)c(S(C)(=O)=O)c3)ccc2-n2cc(C(F)(F)F)nc2C)c(-c2ccc3ccccc3c2)o1 [Example 437, (3-fluoro-4′-(2-methyl-4-(trifluoromethyl)-1H-imidazol-1-yl)-3′-(2-methyl-5-(naphthalen-2-yl)oxazol-4-yl)-5-(methylsulfonyl)biphenyl-4-yl)methanol] | 34 | 76
Cc1nc(C(F)F)c(C)n1-c1ccc(-c2cccc(S(C)(=O)=O)c2)cc1-n1nncc1-c1ccc(OC(F)(F)F)cc1 [Example 232, 1-(4-(4-(difluoromethyl)-2,5-dimethyl-1H-imidazol-1-yl)-3′-(methylsulfonyl)-[1,1′-biphenyl]-3-yl)-5-(4-(trifluoromethoxy)phenyl)-1H-1,2,3-triazole] | 1970 | 74
Cc1nc(-c2cc(-c3cccc(S(C)(=O)=O)c3)ccc2-n2cc(C(F)(F)F)nc2C)c(-c2ccccc2OC(F)F)o1 [Example 547, 5-(2-(difluoromethoxy)phenyl)-2-methyl-4-(4-(2-methyl-4-(trifluoromethyl)-1H-imidazol-1-yl)-3′-(methylsulfonyl)-[1,1′-biphenyl]-3-yl)oxazole] | 474 | 39
Cc1nc(C(F)(F)F)cn1-c1ccc(-c2cc(F)c(CO)c(S(C)(=O)=O)c2)cc1-c1oc(CCO)nc1-c1ccc2c(c1)OC(F)(F)O2 [Example 621, 2-(4-(2,2-difluorobenzo[d][1,3]dioxol-5-yl)-5-(3′-fluoro-4′-(hydroxymethyl)-4-(2-methyl-4-(trifluoromethyl)-1H-imidazol-1-yl)-5′-(methylsulfonyl)-[1,1′-biphenyl]-3-yl)oxazol-2-yl)ethanol] | 790 | 81
Cc1nc(-c2cc(-c3cccc(S(C)(=O)=O)c3)ccc2-n2cc(C(F)(F)F)nc2C)c(-c2ccc(N3CCCC3=O)cc2)o1 [Example 502, 1-(4-(2-methyl-4-(4-(2-methyl-4-(trifluoromethyl)-1H-imidazol-1-yl)-3′-(methylsulfonyl)biphenyl-3-yl)oxazol-5-yl)phenyl)pyrrolidin-2-one] | 1250 | 37
COc1cc(-c2oc(C)nc2-c2cc(-c3cc(F)c(CO)c(S(C)(=O)=O)c3)ccc2-n2cc(C(F)(F)F)nc2C)ccc1OC(F)F [Example 381, (3′-(5-(4-(difluoromethoxy)-3-methoxyphenyl)-2-methyloxazol-4-yl)-3-fluoro-4′-(2-methyl-4-(trifluoromethyl)-1H-imidazol-1-yl)-5-(methylsulfonyl)biphenyl-4-yl)methanol] | 18 | 81
Cc1nc(-c2cc(-c3cccc(S(C)(=O)=O)c3)ccc2-n2cc(C(F)(F)F)nc2C)c(-c2ccc(Cl)cc2)o1 [Example 375, 5-(4-chlorophenyl)-2-methyl-4-{3′-(methylsulfonyl)-4-[2-methyl-4-(trifluoromethyl)-1H-imidazol-1-yl]biphenyl-3-yl}-1,3-oxazole] | 103 | 84
Cc1nc(C(F)(F)F)cn1-c1ccc(-c2cccc(C(C)(C)C(N)=O)c2)cc1-n1nncc1C(=O)c1ccc(Cl)cc1 [Example 139, 2-(3′-{5-[(4-chlorophenyl)carbonyl]-1H-1,2,3-triazol-1-yl}-4′-[2-methyl-4-(trifluoromethyl)-1H-imidazol-1-yl]biphenyl-3-yl)-2-methylpropanamide] | 1490 | 71
Cc1nc(C(F)F)cn1-c1ccc(-c2cccc(S(=O)(=O)N(C)C)c2)cc1-n1nncc1-c1ccc(OC(F)(F)F)cc1 [Example 155, 4′-[4-(difluoromethyl)-2-methyl-1H-imidazol-1-yl]-N,N-dimethyl-3′-(5-{4-[(trifluoromethyl)oxy]phenyl}-1H-1,2,3-triazol-1-yl)biphenyl-3-sulfonamide] | 701 | 93
Cc1nc(C(F)(F)F)cn1-c1ccc(-c2cc(F)c(CO)c(S(C)(=O)=O)c2)cc1-n1nncc1C(C)c1ccc(Cl)cc1 (centres unmarked) [Example 109, (3′-{5-[1-(4-chlorophenyl)ethyl]-1H-1,2,3-triazol-1-yl}-3-fluoro-5-(methylsulfonyl)-4′-[2-methyl-4-(trifluoromethyl)-1H-imidazol-1-yl]biphenyl-4-yl)methanol] | 111 | 53
Cc1nc(-c2cc(-c3cccc(S(C)(=O)=O)c3)ccc2-n2cc(C(F)(F)F)nc2C)c(-c2ccc(OC(F)F)c(Cl)c2)o1 [Example 398, 5-(3-chloro-4-(difluoromethoxy)phenyl)-2-methyl-4-(4-(2-methyl-4-(trifluoromethyl)-1H-imidazol-1-yl)-3′-(methylsulfonyl)biphenyl-3-yl)oxazole] | 55 | 79
CS(=O)(=O)c1cccc(-c2ccc(-n3cnc(C(F)F)c3)c(-n3nncc3-c3ccc(OC(F)(F)F)cc3)c2)c1 [Example 170, 1-{4-[4-(difluoromethyl)-1H-imidazol-1-yl]-3′-(methylsulfonyl)biphenyl-3-yl}-5-{4-[(trifluoromethyl)oxy]phenyl}-1H-1,2,3-triazole] | 3330 | 92
Cc1nc(C(=O)NCC(F)(F)F)cn1-c1ccc(-c2cccc(S(C)(=O)=O)c2)cc1-n1nncc1-c1ccc(OC(F)(F)F)cc1 [Example 3, 2-methyl-1-[3′-(methylsulfonyl)-3-(5-{4-[(trifluoromethyl)oxy]phenyl}-1H-1,2,3-triazol-1-yl)biphenyl-4-yl]-N-(2,2,2-trifluoroethyl)-1H-imidazole-4-carboxamide] | 1950 | 74
Cc1nc(-c2cc(-c3ccc(CO)c(S(C)(=O)=O)c3)ccc2-n2cc(C(F)(F)F)nc2C)c(-c2ccc(OC(F)(F)F)cc2)o1 [Example 522, (4′-(2-methyl-4-(trifluoromethyl)-1H-imidazol-1-yl)-3′-(2-methyl-5-(4-(trifluoromethoxy)phenyl)oxazol-4-yl)-3-(methylsulfonyl)-[1,1′-biphenyl]4-yl)methanol] | 42 | 86
Cc1nc(-c2cc(-c3cc(F)c(CO)c(S(C)(=O)=O)c3)ccc2-n2cc(C(F)(F)F)nc2C)c(-c2ccc3c(c2)CC(C)(C)O3)o1 [Example 420, (3′-(5-(2,2-dimethyl-2,3-dihydrobenzofuran-5-yl)-2-methyloxazol-4-yl)-3-fluoro-4′-(2-methyl-4-(trifluoromethyl)-1H-imidazol-1-yl)-5-(methylsulfonyl)biphenyl-4-yl)methanol] | 82 | 86
CS(=O)(=O)c1cc(-c2cc(F)c(-n3cnc(C(F)(F)F)c3)c(-n3nncc3-c3ccc(OC(F)(F)F)cc3)c2)cc(F)c1CO [Example 189, [3,3′-difluoro-5-(methylsulfonyl)-4′-[4-(trifluoromethyl)-1H-imidazol-1-yl]-5′-(5-{4-[(trifluoromethyl)oxy]phenyl}-1H-1,2,3-triazol-1-yl)biphenyl-4-yl]methanol] | 1790 | 95
Cc1nc(C(F)(F)F)cn1-c1ccc(-c2cc(F)c(CO)c(S(C)(=O)=O)c2)cc1-c1nc(C(C)CO)oc1-c1ccc(OC(F)(F)F)cc1 (centres unmarked) [Example 554, 2-(4-(3′-fluoro-4′-(hydroxymethyl)-4-(2-methyl-4-(trifluoromethyl)-1H-imidazol-1-yl)-5′-(methylsulfonyl)-[1,1′-biphenyl]-3-yl)-5-(4-(trifluoromethoxy)phenyl)oxazol-2-yl)propan-1-ol] | 226 | 31
